One may read the Kd as the constant that tells how readily two partners part at equilibrium.

One compound from BindingDB's records for doi:10.1074/jbc.M113.493767 (Novartis Institute For Tropical Diseases, 2013) can be followed below.

The target in this assay is ATP-dependent Clp protease ATP-binding subunit ClpC1 (Mycobacterium tuberculosis (strain ATCC 25618 / H37Rv), UniProt P9WPC9). The experiment in a line: Isothermal Titration Calorimetry (ITC). To be noted: pH 7.5; 25 °C. The protocol:
Isothermal titration calorimetry experiments were performed using an iTC200 (GEHealthcare) at 25 °C, with 15-20 μM ClpC1 (in 20 mM Tris-HCl, pH 7.5, 300 mM NaCl, 1 mM EDTA, 1 mM Tris(2-carboxyethyl) phosphine, 9% DMSO) in the sample cell. Typically, 19 injections of 2 μl of 150-200 μM CymA1 solution in the same bufferwere injected into the sample cell at 2.5-min intervals.

Numbered stars: 1 amine (or outer) side, 2 acyl side, 3 side chain; on linkers, the order of the positions; unused ones are H or OH. Square brackets hold non-standard residues; d marks the D form. Peptide text beside a SMILES is read from it. X1 = CC(C)([C@@H](O)CNCCCN)n1cc([C@@H](O)[C@H](N[*:1])C(=O)[*:2])c2ccccc21; Ala(3R-Me,3-isobutenyl) = CC(C)=C[C@@H](C)[C@H](N)C(=O)O; NMeLeu(5-OH,4R) = CN[C@@H](C[C@@H](C)CO)C(=O)O; Phe(βR-OMe) = CO[C@H](c1ccccc1)[C@H](N)C(=O)O; NMeL = CN[C@@H](CC(C)C)C(=O)O

ATP-dependent Clp protease ATP-binding subunit ClpC1, sequence (P9WPC9 whole entry): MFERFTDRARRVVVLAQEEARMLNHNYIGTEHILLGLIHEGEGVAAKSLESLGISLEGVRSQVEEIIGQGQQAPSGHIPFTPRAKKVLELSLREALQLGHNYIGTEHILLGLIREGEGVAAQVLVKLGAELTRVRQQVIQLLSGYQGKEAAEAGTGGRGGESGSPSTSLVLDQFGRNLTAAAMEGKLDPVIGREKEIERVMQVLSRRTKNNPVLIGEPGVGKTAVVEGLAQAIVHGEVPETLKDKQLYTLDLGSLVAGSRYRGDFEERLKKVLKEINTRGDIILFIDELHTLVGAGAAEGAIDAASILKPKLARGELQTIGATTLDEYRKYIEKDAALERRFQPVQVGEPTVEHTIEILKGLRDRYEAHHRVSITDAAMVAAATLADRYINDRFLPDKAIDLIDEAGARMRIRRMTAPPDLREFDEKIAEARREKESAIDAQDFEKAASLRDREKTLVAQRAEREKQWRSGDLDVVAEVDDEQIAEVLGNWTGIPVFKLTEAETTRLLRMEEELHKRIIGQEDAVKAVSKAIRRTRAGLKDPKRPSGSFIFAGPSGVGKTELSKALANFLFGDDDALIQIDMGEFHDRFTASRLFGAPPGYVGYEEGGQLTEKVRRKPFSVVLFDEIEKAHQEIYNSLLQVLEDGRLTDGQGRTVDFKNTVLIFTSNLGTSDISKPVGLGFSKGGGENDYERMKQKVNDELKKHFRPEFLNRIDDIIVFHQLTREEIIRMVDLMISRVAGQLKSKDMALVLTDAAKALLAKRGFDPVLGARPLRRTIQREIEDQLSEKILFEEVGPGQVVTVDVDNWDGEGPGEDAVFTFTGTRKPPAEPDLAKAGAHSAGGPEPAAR

`CO[C@H](c1ccccc1)[C@@H]1NC(=O)[C@H](C)NC(=O)[C@H](C[C@@H](C)CO)N(C)C(=O)[C@H]([C@H](O)c2cn(C(C)(C)[C@@H](O)CNCCCN)c3ccccc23)NC(=O)[C@H]([C@H](C)C=C(C)C)NC(=O)[C@H](CC(C)C)N(C)C(=O)[C@H](C(C)C)NC1=O` [Cyclomarin A1 (CymA1)] (cyclo(A[Phe(βR-OMe)]V[NMeL][Ala(3R-Me,3-isobutenyl)][X1][NMeLeu(5-OH,4R)])) registered a Kd of 0.0175 µM.
